Data from patent US11274090B2, “P300/CBP HAT inhibitors” (Constellation Pharmaceuticals, Inc., priority 2018, dated 2022).

biological target: p300 HAT domain (residues 1287-1666) (Homo sapiens (Human), UniProt Q09472); experiment: p300 HAT SPA assay (scintillation proximity assay, acetylation of biotinylated H3(1-21) peptide); assay type: biochemical; details: average of at least 2 replicate titrations
Description: In a typical experiment the p300 HAT inhibitory activity of the compounds described herein was determined in accordance with the following experimental method.
The expressed protein was purified by Ni2+ affinity, followed by anion exchange chromatography. Appropriate fractions were pooled and buffer exchanged into 20 mM Hepes pH 7.5, 150 mM NaCl, and 1 mM TCEP.
35 μL of the reaction volume was transferred to a 384-well streptavidin FlashPlate (PerkinElmer) using a Bravo liquid handler (Velocity 11) and incubated for 1.5 hr at RT. […] Data were analyzed in Genedata to determine inhibitor IC50 values.

p300 HAT domain (residues 1287-1666), sequence (Q09472 1287-1666): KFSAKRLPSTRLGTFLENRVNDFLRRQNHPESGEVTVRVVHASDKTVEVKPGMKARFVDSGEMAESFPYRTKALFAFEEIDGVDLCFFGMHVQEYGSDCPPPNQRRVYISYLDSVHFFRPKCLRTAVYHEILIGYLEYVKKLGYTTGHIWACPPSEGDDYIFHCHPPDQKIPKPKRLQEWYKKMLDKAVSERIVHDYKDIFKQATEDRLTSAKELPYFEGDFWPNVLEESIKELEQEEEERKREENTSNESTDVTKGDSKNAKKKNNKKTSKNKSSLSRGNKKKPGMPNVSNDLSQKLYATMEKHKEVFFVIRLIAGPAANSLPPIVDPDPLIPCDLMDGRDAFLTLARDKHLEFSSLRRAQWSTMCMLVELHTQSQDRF

Compound	IC50 [nM]
Cn1cc(-c2ncc(NC(=O)C(NCCc3ccc(C#N)cc3)c3ccccc3)cn2)cn1 (single isomer, unassigned) [23 Isomer 2]	> 5000
Cn1cc(-c2ccc(NC(=O)C(NCCc3ccc(C#N)cn3)c3ccccc3)nc2)cn1 (single isomer, unassigned) [142 Isomer 2]	210
COc1cc(NC(=O)C(NCCc2ccc(C#N)cc2)c2ccccc2)ccc1-c1cnn(C)c1 (single isomer, unassigned) [25 Isomer 2]	> 5000
CS(=O)(=O)N1CCN(c2ccc(NC(=O)C(NCCc3ccc(C#N)cc3)c3ccccc3)nc2)CC1 (single isomer, unassigned) [68 Isomer 1]	> 2000
Cc1cc(C#N)ccc1CCNC(C(=O)Nc1ccc(-c2cnn(C)c2)cn1)c1ccccc1 (single isomer, unassigned) [41 Isomer 2]	1790
N#Cc1ccc(CCNC(C(=O)Nc2ccn(-c3ccccc3)n2)c2ccccc2)cc1 (single isomer, unassigned) [50 Isomer 1]	279
N#Cc1ccc(CCNC(C(=O)Nc2ccc(N3CCN(CC(F)(F)F)CC3)cn2)c2ccccc2)cc1 (single isomer, unassigned) [40 Isomer 1]	190
CC(Cc1ccc(Cl)cc1)NC(C(=O)Nc1ccc(-c2cnn(C)c2)cc1)c1ccccc1 (single isomer, unassigned) [3 Isomer 1]	196
CC(CNC(C(=O)Nc1ccc(-c2cnn(C)c2)cc1)c1ccccc1)c1ccc(C#N)cc1 (single isomer, unassigned) [82 Isomer 3]	604
N#Cc1ccc(CCNC(C(=O)Nc2ccc(N3CCC4(COC4)C3)cn2)c2ccccc2)cc1 (single isomer, unassigned) [96 Isomer 1]	67.4
C[C@H](CNC(C(=O)Nc1ccc(-c2cc(=O)n(C)cn2)cn1)c1ccccc1)c1ccc(C#N)cc1 (single isomer, unassigned) [106 Isomer 1]	> 2000
CC(CNC(C(=O)Nc1ccc(-c2cnn(C)n2)cn1)c1ccccc1)c1ccc(C(F)(F)F)cc1 (single isomer, unassigned) [99 Isomer 4]	28.3
CO[C@H]1CCN(c2ccc(NC(=O)C(NCC(C)c3ccc(C#N)cc3)c3ccccc3)nc2)C1 (single isomer, unassigned) [93 Isomer 1]	412
Cc1cnc(-c2ccc(NC(=O)C(NCCc3ccc(C#N)cc3)c3ccccc3)cc2)[nH]1 (single isomer, unassigned) [11 Isomer 1]	279
Cc1ccc(-c2ccc(NC(=O)C(NCC(C)c3ccc(C#N)cc3)c3ccccc3)nc2)nn1 (single isomer, unassigned) [15 Isomer 2]	> 2000

Other lines, results leading:

IC50 [nM]	Compound
19.6	CC(CNC(C(=O)Nc1ccc(-c2cnn(C(C)(C)CO)c2)cn1)c1ccccc1)c1ccc(C#N)cc1 (single isomer, unassigned) [8 Isomer 4]
> 2000	CC(CNC(C(=O)Nc1ccc(-c2cnn(CC(F)(F)F)c2)cn1)c1ccccc1)c1ccc(C#N)cc1 (single isomer, unassigned) [83 Isomer 2]
> 2000	CC(CNC(C(=O)Nc1ccc(-c2cnn(C)c2)cn1)c1cnn(C)c1)c1ccc(C#N)cc1 (single isomer, unassigned) [127 Isomer 3]
> 2000	CC(CNC(C(=O)Nc1ccc(-c2cnn(C)c2)cn1)c1cnn(C)c1)c1ccc(C#N)cc1 (single isomer, unassigned) [127 Isomer 1]
1230	CC(CNC(C(=O)Nc1ccc(-c2cnn(C(C)(C)CO)c2)cn1)c1ccccc1)c1ccc(C#N)cc1 (single isomer, unassigned) [8 Isomer 3]
612	CC(CNC(C(=O)Nc1ccc(-c2cnn(C3CCC3)c2)cn1)c1ccccc1)c1ccc(C#N)cc1 (single isomer, unassigned) [52 Isomer 1]
1880	C[C@H](CNC(C(=O)Nc1ccc(-c2cnn(CC(N)=O)c2)cn1)c1ccccc1)c1ccc(C#N)cc1 (single isomer, unassigned) [147 Isomer 1]
> 2000	CC(CNC(C(=O)Nc1ccc(-c2cnn(C(F)F)c2)cn1)c1cnn(C)c1)c1ccc(C#N)cc1 (single isomer, unassigned) [128 Isomer 3]
